Where two headings read alike, the source gives them in different places.
What was measured:
[1] = system: E. maxima and C. perfringens; type: in vivo, broiler chicks
C. jejuni = C. jejuni in vitro growth inhibition in BHI broth (OD600); type: cell-based, Campylobacter jejuni; conditions: 1 mM, 48 hours in BHI broth; for C. jejuni growth, OD600: microaerobic, without bile acid 0.153
Protocol: To evaluate bile acids on C. jejuni growth, the bacterium was inoculated in BHI broth. The medium was also added final concentration of 0, 0.2, 0.5, and 1 mM DCA, and 1 mM TCA and CA. After 48-hour culture under microaerobic condition, the bacterium growth was measured at OD600.

C. perfringens [2] = assay: microbe, parasite or virus in culture; type: cell-based, Clostridium perfringens
[3] = system: E. maxima and C. perfringens; type: in vivo, broiler chicks; remark: listed apart in the source
[4] = Separate growth experiment, 26 days: body weight gain and ileal fat and nitrogen levels; type: in vivo, broiler chicks; conditions: 1.5 g/kg feed DCA diet for 26 days vs basal diet
Protocol: In a separate experiment, birds were fed diet supplementing with DCA at 1.5 g/kg feed. After 26 days the birds were weighed and sacrificed and ileal content were collected. The dry matter (DM), crude fat, and nitrogen levels in the ileal content was analyzed at the Central Analytical Lab at Department of Poultry Science at University of Arkansas at Fayetteville, Ark.

Ptgs2 and Atp6vg1 mRNA = assay: Host response gene mRNA accumulation in ileal tissue (real time PCR); type: in vivo; conditions: DCA diet; chicken ileal tissue; normalized to Gapdh
Protocol: Total RNA from chicken intestinal tissue was extracted using TRIzol (Invitrogen, Carlsbad, Calif.). Briefly, after bead beater disruption in TRIzol and chloroform and centrifugation, supernatant was precipitated with isopropanol. The pelleted RNA was washed once with 75% ethanol. The final RNA was dissolved in DNase/RNase free water and stored in −80° C. freezer. Complementary DNA was prepared using M-MLV (NEB).
Messenger RNA levels of proinflammatory genes were determined using SYBR Green PCR Master Mix (Bio-Rad, Hercules, Calif.) on an Bio-Rad 384-well Real-Time PCR System and normalized to Gapdh. The polymerase chain reactions were performed on 384-well real time PCR machine (Bio-Rad, Hercules, Calif.) according to the manufacturer's recommendation. […]

Infγ, Tnfα and Mmp9 mRNA = system: Infγ, Tnfα and Mmp9 mRNA; parameters: species or system broiler chicks; conditions: in vivo
[5] = system: C. perfringens 16S, Cpb and Virx mRNA; parameters: species or system broiler chicks; conditions: in vivo
C. perfringens [6] = type: in vivo, broiler chicks; conditions: DCA birds vs NE control birds; 16S rDNA real time PCR
[7] = Broiler growth performance (body weight gain, feed conversion ratio) on DCA diet; type: in vivo, broiler chicks
C. jejuni strain 81-176 = assay: C. jejuni 81-176 cecal colonization in broiler chicks fed DCA diet; type: in vivo; conditions: 1.5 g/kg DCA diet, 10^9 CFU/chick C. jejuni 81-176 at 14 days of age

## C[C@H](CCC(=O)O)[C@H]1CC[C@H]2[C@@H]3[C@H](O)C[C@@H]4C[C@H](O)CC[C@]4(C)[C@H]3C[C@H](O)[C@]12C [CA, cholic acid]
[1]; in vivo
  NE-induced intestinal inflammation and histopathology score: reduces bird NE intestinal inflammation
C. jejuni
  effect on C. jejuni growth: failed to inhibit C. jejuni growth
  C. jejuni growth, OD600: 0.19
C. perfringens [2]; Clostridium perfringens, 1 mM, read-out: inhibition of C. perfringens growth
  inhibition at 1000 µM: 30%
[3]; in vivo
  productivity / body weight gain loss at NE phase: attenuated body weight gain loss
  productivity / body weight gain loss at coccidiosis phase: failed

## C[C@H](CCC(=O)O)[C@H]1CC[C@H]2[C@@H]3CC[C@@H]4C[C@H](O)CC[C@]4(C)[C@H]3C[C@H](O)[C@]12C [DCA, deoxycholic acid]
[4]
  growth performance on body weight gain: promoted bird growth performance on body weight gain
Ptgs2 and Atp6vg1 mRNA
  Atp6vg1 mRNA accumulation change compared to control diet: +40%
  Ptgs2 mRNA accumulation change compared to control diet: +92%
[1]; 1.5 g/kg diet, upper ileum, H&E, vs NE control birds
  NE-induced intestinal inflammation and histopathology score: significantly attenuated
C. jejuni
  effect on C. jejuni growth: slightly enhanced but not inhibit C. jejuni growth
  C. jejuni growth, OD600: 0.213
Infγ, Tnfα and Mmp9 mRNA
  attenuation of NE-induced Infγ mRNA accumulation: 51%
  attenuation of NE-induced Mmp9 mRNA accumulation: 66%
  attenuation of NE-induced Tnfα mRNA accumulation: 82%
[5]
  block of C. perfringens 16S mRNA accumulation: 97%
  block of C. perfringens Cpb mRNA accumulation: 61%
  block of C. perfringens Virx mRNA accumulation: 61%
C. perfringens [6]
  ileal luminal C. perfringens load: not significantly different from NE control birds
C. perfringens [2]; 0.4 mM, TSB, overnight, anaerobic, OD600
  inhibition of C. perfringens growth: 87%
[7]
  accumulative feed conversion ratio improvement compared to control diet: 16.6%
[7]; at 28 days of age
  body weight gain increase compared to control diet: 11.9%
[7]; at 28 days of age, control diet 2.86
  body weight gain: 3.20 lb
[7]; control diet 1.81, lower value means better feed efficiency
  accumulative feed conversion ratio: 1.51
[3]; 1.5 g/kg diet, d 18-23, compared to Em and NE control birds
  productivity / body weight gain loss at coccidiosis phase: prevented productivity loss
[3]; 1.5 g/kg diet, d 23-26, compared to NE control birds
  productivity / body weight gain loss at NE phase: prevented productivity loss
[3]; 1.5 g/kg diet, during 1-14 and 14-18 days of age, compared to birds fed other diets
  growth performance on body weight gain and feed efficiency before infection: promoted bird growth performance on body weight gain (FIG. 9A) and feed efficiency
C. jejuni strain 81-176; 2 days PI
  C. jejuni colonization level in ceca: 0 CFU/g
C. jejuni strain 81-176; 7 days PI
  C. jejuni colonization level in ceca: 9.0×10^2 CFU/g
C. jejuni strain 81-176; 14 days PI
  C. jejuni colonization level in ceca: 0 CFU/g

## C[C@H](CCC(=O)NCCS(=O)(=O)O)[C@H]1CC[C@H]2[C@@H]3[C@H](O)C[C@@H]4C[C@H](O)CC[C@]4(C)[C@H]3C[C@H](O)[C@]12C [TCA, taurocholic acid, reference compound]
C. jejuni
  effect on C. jejuni growth: failed to inhibit C. jejuni growth
  C. jejuni growth, OD600: 0.197
C. perfringens [2]
  inhibition of C. perfringens growth: failed to prevent its growth
